Here are results for 20 compounds from ChEMBL document CHEMBL5247614, “An overview of aryl hydrocarbon receptor ligands in the Last two decades (2002-2022): A medicinal chemistry perspective” (Eur J Med Chem, 2022).

The subject of series [1] is CYP1A1. Briefly: Upregulation of CYP1A1 gene expression in human MDA-MB-468 cells transfected with XRE plasmid containing AhR responsive luciferase construct and renilla luciferase assessed as fold change in gene expression at 1 uM incubated for 24 hrs by dual-glo luciferase assay relative to control. The note with it: read-out: FC. It counts as ADME, cell-based.
Series [2] relates to CYP1A1. Briefly: Upregulation of CYP1A1 gene expression in human MDA-MB-468 cells transfected with XRE plasmid containing AhR responsive luciferase construct and renilla luciferase assessed as fold change in gene expression at 1 uM incubated for 1 hr by dual-glo luciferase assay relative to control. Format: ADME, cell-based. The note with it: read-out: FC.
Series [3] deals with T1, Aryl hydrocarbon receptor (Homo sapiens, UniProt P35869).
T1 sequence (P35869 whole entry): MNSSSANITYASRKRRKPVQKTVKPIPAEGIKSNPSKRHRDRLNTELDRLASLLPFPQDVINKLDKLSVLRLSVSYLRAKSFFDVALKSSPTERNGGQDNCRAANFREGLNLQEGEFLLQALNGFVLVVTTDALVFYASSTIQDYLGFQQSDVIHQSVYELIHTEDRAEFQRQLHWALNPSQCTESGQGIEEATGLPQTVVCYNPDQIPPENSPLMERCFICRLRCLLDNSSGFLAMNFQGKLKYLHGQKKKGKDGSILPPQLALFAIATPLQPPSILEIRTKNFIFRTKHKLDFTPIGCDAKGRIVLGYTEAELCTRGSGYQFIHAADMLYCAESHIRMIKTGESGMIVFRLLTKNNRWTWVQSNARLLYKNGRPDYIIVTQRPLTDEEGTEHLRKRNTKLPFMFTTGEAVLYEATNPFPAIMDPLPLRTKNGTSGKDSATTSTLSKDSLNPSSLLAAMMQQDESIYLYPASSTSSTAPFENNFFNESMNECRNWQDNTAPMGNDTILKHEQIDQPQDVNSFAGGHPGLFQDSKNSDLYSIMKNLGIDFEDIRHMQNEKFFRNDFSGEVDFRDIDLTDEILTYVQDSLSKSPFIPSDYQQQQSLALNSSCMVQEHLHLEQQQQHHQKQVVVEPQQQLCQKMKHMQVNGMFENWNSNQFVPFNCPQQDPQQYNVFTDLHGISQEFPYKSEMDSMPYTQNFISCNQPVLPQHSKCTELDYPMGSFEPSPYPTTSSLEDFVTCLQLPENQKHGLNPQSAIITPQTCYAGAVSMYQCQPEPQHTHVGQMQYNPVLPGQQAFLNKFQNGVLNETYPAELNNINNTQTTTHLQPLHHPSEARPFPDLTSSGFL
Put plainly: Antagonist activity at AhR (unknown origin) assessed as inhibition of TCDD-induced luciferase activity.

Series [4] has as its target T1, Aryl hydrocarbon receptor. Put plainly: Antagonist activity at AhR (unknown origin).
For series [5], the target named is T1, Aryl hydrocarbon receptor.
For series [6], the target named is T1, Aryl hydrocarbon receptor. Put plainly: Binding affinity to AhR (unknown origin) assessed as dissociation constant.
Series [7] in a line: Inhibition of kynurenic acid-induced CYP1A1 gene expression in human U-937 cells by qPCR analysis. Format: ADME, cell-based. (In general: Real-time PCR tracks product formation cycle by cycle.)
In series [8] the target is T1, Aryl hydrocarbon receptor. Put plainly: Antagonist activity at AhR (unknown origin) expressed in human U87 cells assessed as inhibition of kynurenic acid-induced transactivation by Renilla/Firefly based dual-glo luciferase assay. Format: cell-based.
The target in series [9] is T2, Aryl hydrocarbon receptor (Rattus norvegicus, UniProt P41738).
T2 sequence (P41738 whole entry): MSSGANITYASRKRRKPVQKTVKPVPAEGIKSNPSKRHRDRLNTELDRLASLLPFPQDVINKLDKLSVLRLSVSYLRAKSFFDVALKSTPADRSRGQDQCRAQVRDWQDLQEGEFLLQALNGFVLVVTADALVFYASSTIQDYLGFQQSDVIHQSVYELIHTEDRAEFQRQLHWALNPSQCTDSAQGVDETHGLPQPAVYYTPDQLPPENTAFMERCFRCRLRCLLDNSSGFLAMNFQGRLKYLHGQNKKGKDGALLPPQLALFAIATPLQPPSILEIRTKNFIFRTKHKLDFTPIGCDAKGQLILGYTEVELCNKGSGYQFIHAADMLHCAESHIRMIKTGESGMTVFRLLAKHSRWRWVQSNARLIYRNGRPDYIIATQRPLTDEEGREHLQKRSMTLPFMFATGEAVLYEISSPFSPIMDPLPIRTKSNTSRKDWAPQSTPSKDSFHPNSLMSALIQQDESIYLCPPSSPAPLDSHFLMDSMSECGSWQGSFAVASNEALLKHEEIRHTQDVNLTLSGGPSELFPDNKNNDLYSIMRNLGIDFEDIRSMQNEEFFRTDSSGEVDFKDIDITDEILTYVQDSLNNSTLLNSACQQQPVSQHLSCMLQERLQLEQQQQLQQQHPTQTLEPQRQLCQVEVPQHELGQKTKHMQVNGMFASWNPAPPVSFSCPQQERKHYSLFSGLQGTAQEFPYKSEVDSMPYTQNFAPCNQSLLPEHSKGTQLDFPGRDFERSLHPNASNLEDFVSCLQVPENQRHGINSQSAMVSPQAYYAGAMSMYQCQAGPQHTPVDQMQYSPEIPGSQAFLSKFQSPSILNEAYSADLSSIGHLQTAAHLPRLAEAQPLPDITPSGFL
Briefly: Antagonist activity at AhR in rat liver cytosol assessed as inhibition of TCDD-induced AhR/DNA complex formation by gel retardation assay. Format: subcellular.

In series [10] the target is T2, Aryl hydrocarbon receptor. Briefly: Inhibition of TCDD binding to rat liver cytosol AhR. Format: subcellular.
Series [11] deals with T1, Aryl hydrocarbon receptor. Briefly: Agonist activity at AhR (unknown origin).
Series [12] has as its target T1, Aryl hydrocarbon receptor. Put plainly: Antagonist activity at AhR (unknown origin) assessed as inhibition of receptor activation.
The target of series [13] is T1, Aryl hydrocarbon receptor. Briefly: Activation of human AhR expressed in Saccharomyces cerevisiae YCM3 coexpressing ARNT incubated for 18 hrs.
Series [14] deals with T1, Aryl hydrocarbon receptor. Put plainly: Modulator activity at AhR (unknown origin).
The test system of a further series is Saccharomyces cerevisiae. Briefly: Activation of transcription in yeast expressing AhR and ARNT. It counts as functional, organism-based.

Turning to `Nc1ccccc1N1C(=O)c2cccc3cccc(c23)C1=O`, in the series on CYP1A1 [1], the fold induction at 24 h, 1 µM worked out at 250. Besides, in the series on CYP1A1 [2], the fold induction at 1 h, 1 µM turned out to be 25.
Turning to `Cc1ccccc1/N=N/c1ccc(NC(=O)c2ccnn2C)c(C)c1`, the IC50 in series [3] was 30 nM.
Turning to `Cc1[nH]c2ccccc2c1C`, 11000 nM corresponded to half-maximal inhibition in series [4] (IC50).
`CC(C)n1cnc2c(NCCc3ccc(O)cc3)nc(-c3csc4ccccc34)nc21` registered an IC50 in series [5] of 127 nM.
In the case of `c1ccc2c(c1)[nH]c1cc3c(cc12)[nH]c1ccccc13`, the Kd in series [6] was determined as 0.19 nM.
For `CC(CO)NC(=O)c1cc(-c2ccc(Cl)cc2)nn(-c2cccc(F)c2)c1=O` (centres undefined), the figures for the IC50 in series [7] and in [8] were 70700 nM and 39.9 nM, respectively.
As for `COc1ccc(-c2coc3ccccc3c2=O)cc1N`, the IC50 in [9] was 1000 nM; in [10], 4000 nM.
In turn, `O=c1c(Cc2c[nH]c3ccccc23)nccc2c1[nH]c1ccccc12` yielded an EC50 in [11] of 12 nM.
Turning to `O=C(NCC(O)C(F)(F)F)c1cc(-c2ccc(OC(F)(F)F)cc2)nn(-c2cccnc2)c1=O` (centres undefined), in [4], inhibition was half-maximal at 82.2 nM (IC50).
As for `O=C1CC(C(=O)O)c2c1oc(=O)c1cc(O)c(O)c(O)c21` (centres undefined), the concentration for an effect of 70% (EC70) in [12] amounted to 3900 nM.
Consider `CC(C)c1cnn2c(N[C@@H]3CCc4[nH]c5ccccc5c4C3)nc(-c3cncc(F)c3)nc12`, for which, in series [4], the IC50 is less than 500 nM.
The same measure, in the same setting: with `Cc1[nH]c2c(C)cccc2c1C` the figure was 12000 nM.
In series [11], `c1ccc2c(c1)Nc1nc3ccccc3c3ccnc-2c13` displayed an EC50 of 0.01 nM. That is a picomolar value.
In series [13], `Clc1cc2c(cc1Cl)Oc1cc(Cl)c(Cl)cc1O2` [2,3,7,8-TETRACHLORODIBENZO-P-DIOXIN] returned an EC50 of 9 nM.
With `c1ccc2c(Cc3c[nH]c4ccccc34)c[nH]c2c1` [ARUNDINE], the response in [14] was half-maximal at 78000 nM (EC50). Besides, the Kd in series [6] amounted to 90 nM.
For the compound `CCS(=O)(=O)c1ccc2oc(-c3ccc4ccccc4c3)nc2c1` [EZUTROMID], the Kd in series [6] turned out to be 50 nM.
In the series with Saccharomyces cerevisiae, `O=C(O)Cc1c[nH]c2ccccc12` [INDOLE-3-ACETIC ACID] yielded an EC50 of 300000 nM.
As for `c1ccc2[nH]ccc2c1` [INDOLE], in the series with Saccharomyces cerevisiae, the concentration giving a half-maximal response (EC50) came out at 300000 nM.
The same measure, in the same setting: the figure for `NCCc1c[nH]c2ccccc12` [TRYPTAMINE] is 300000 nM; for `N[C@@H](Cc1c[nH]c2ccccc12)C(=O)O` [TRYPTOPHAN] it is 300000 nM.

As usually defined, the IC50 is the concentration that inhibits the measured activity by half. The Kd is the free concentration of one partner at which half of the binding sites on the other are occupied at equilibrium, for simple one-to-one binding. Usually EC50 stands for the midpoint of the concentration-response curve. Read a low EC50 as an effect from little substance. By EC70 is commonly meant the concentration needed for an effect of 70%.
